Laboratory results as given in patent EP4789715A2, “METHODS FOR TREATING NEOINTIMAL HYPERPLASIA USING F11R/JAM-A INHIBITORS” (The Research Foundation for The State University of New York, priority 2019, dated 2026).
Non-standard residues stand in square brackets, D forms with d. Residues, ends and D or L forms follow the SMILES beside them.

System: uremic C57BL/6 mice
Assay: carotid artery ligation (mid-focal LCA stenosis) model of neointimal hyperplasia in 5/6-nephrectomized uremic mice
Type: in vivo
Details: for mean Intima Index (ratio of intima area/intima + media area): intraperitoneal injections for 21 days, n=7
Procedure: Carotid artery ligation was performed on 14 uremic C57BL/6 mice that underwent 5/6 nephrectomy. One week after nephrectomy, partial ligation of the left carotid artery (LCA) was performed on each mouse. Focal LCA stenosis was created by placing 9-0 nylon suture at 1mm proximal to the carotid bifurcation (mid-focal stenosis) around the artery using a 35-gauge blunt needle (World precision Instruments, Inc., Sarasota, FL). Then the needle mandrel was gently removed to restore blood flow.
Mice were fed a regular mouse diet and divided into 2 groups of 7 mice each; the experimental group received Peptide 4D while the Control group received saline injections by intraperitoneal route for 21 days, as this was the time shown in earlier studies to correlate with development of neointimal hyperplasia following partial ligation of the carotid artery.
The mice were then euthanized on day 21 and both LCA and right carotid artery (RCA) were excised for analysis. Specimens were embedded in paraffin. Serial sections (6 µm thick) were collected at 200-µm intervals of the LCA from mid-focal stenosis as well as from the RCA serving as lesion control. Data were analyzed qualitatively and quantitatively using Image J software. The two groups were compared for differences in mean Intima Area and Intima Index, defined as the ratio of intima area divided by intima plus media area.

Question: With `CC(C)[C@H](NC(=O)[C@H](CO)NC(=O)[C@H](N)CCCCN)C(=O)N[C@H](C(=O)N[C@H](CCCNC(=N)N)C(=O)N[C@@H](CCC(=O)O)C(=O)N[C@@H](CC(=O)O)C(=O)N[C@H](C(=O)NCC(=O)N[C@H](C(=O)N[C@@H](Cc1ccc(O)cc1)C(=O)N[C@H](C(=O)N[C@@H](CS)C(N)=O)[C@@H](C)O)[C@@H](C)O)[C@@H](C)O)[C@@H](C)O` [Peptide 4D, NH2-(dK)-SVT-(dR)-EDTGTYTC-CONH2] (H-[dK]SVT[dR]EDTGTYTC-NH2) as the compound, how does the “experimental mice LCA with severe neointimal hyperplasia” value (7 treated mice, day 21, all LCA in control mice developed severe neointimal hyperplasia, two with complete luminal occlusion) read?
Answer: The value was “only one had severe neointimal hyperplasia”.

Question: What about the “mean Intima Index (ratio of intima area/intima + media area)” value (average from 10 LCA locations, FIG. 6, control (0.27 + 0.13), p = 0.0079) of the same compound?
Answer: The value was “significantly less mean intima/intima + media ratio”.

Question: What about the “mean Intima Index (ratio of intima area/intima + media area)” value (average from 10 LCA locations, FIG. 6, control (0.27 + 0.13), p = 0.0079, listed as peptide 4D) of the same compound?
Answer: Its value is 0.089 + 0.081.

Question: And the “arterial lumen (H&E-stained cross sections of the carotid artery)” value (different distances from the point of ligation, compared to occluded lumens in the controls, FIGs. 1A-1B)?
Answer: Its value is “arterial lumen is preserved”.

Question: And the “mean Intima Index (ratio of intima area/intima + media area)” value (from 1 LCA location with biggest focal stenosis, FIG. 7, control (0.47 + 0.15), p = 0.039)?
Answer: The value was 0.31 + 0.14.

Question: What about the “intima area relative to distance from the ligation point” value (mid focal stenosis morphometry of LCA, 10 locations, treated versus control untreated uremic mice, FIG. 4) of the same compound?
Answer: Its value is “significantly smaller”.

Question: And the neointimal hyperplasia (uremic C57BL/6 mice, carotid ligation model, 21 days of administration, overall conclusion in words)?
Answer: The neointimal hyperplasia was “significantly inhibits neointimal hyperplasia”.
